Measurements published in US11691972B2, “Compounds for targeted degradation of BRD9” (C4 Therapeutics, Inc., priority 2020, dated 2023).

Biological target: T1, BRD9 (Homo sapiens, UniProt Q9H8M2)
T1 sequence (Q9H8M2 1-597): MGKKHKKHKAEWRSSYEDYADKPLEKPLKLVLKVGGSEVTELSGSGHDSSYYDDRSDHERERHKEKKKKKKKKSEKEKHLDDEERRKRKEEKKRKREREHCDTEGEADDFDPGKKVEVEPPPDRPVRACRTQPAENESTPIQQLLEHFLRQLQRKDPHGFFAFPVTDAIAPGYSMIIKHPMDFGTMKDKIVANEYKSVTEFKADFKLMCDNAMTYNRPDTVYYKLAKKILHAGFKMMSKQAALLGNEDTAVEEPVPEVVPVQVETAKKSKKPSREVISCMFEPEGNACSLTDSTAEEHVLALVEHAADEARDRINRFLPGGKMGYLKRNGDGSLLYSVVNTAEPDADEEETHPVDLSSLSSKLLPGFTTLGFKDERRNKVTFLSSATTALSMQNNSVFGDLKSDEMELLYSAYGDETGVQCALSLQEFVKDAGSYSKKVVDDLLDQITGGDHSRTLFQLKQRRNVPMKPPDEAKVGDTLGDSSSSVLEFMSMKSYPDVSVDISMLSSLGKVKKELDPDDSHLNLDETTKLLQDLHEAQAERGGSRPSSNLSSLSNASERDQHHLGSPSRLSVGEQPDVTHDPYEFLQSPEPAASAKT
Experiment: HiBiT BRD9 degradation assay in 293T.166 (BRD9-HiBiT) cells
Assay type: cell-based
Design: endogenously expressing BRD9 with HiBiT fusion tag via CRISPR; host or cells: 293T.166 (BRD9-HiBiT), also expressing LgBiT ectopically
Conditions: Table 1; 293T.166 cells, 2.0 hours; class symbols; read-out: HiBiT-Degradation 293T.166 BRD9 2.0 hours (DC50)
How it was run: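 293T.166 cells carrying endogenous CRISPR BRD9-HiBiT and expressing LgBiT treated 2 h at 37° C. with compounds, 11-point half-log titration from 10 μM in duplicate. Remaining BRD9 measured as lytic HiBiT luminescence; untreated cells as negative control, no-reagent wells as positive control.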

DC50 [µM]	Compound
< 0.1	COc1cc(-c2cn(C)c(=O)c3cnccc23)cc(Cl)c1C(=O)N1CCC(CCC2CCN(c3ccc(NC4CCC(=O)NC4=O)cc3F)CC2)CC1 (stereo not shown) [Compound 241, 3-[4-[4-[2-[1-[2-chloro-6-methoxy-4-(2-methyl-1-oxo-2,7-naphthyridin-4-yl)benzoyl]-4-piperidyl]ethyl]-1-piperidyl]-3-fluoro-anilino]piperidine-2,6-dione]
< 0.1	COc1cc(-c2cn(C)c(=O)c3[nH]ncc23)cc(Cl)c1C(=O)N1CCC(C2CCN(c3ccc(NC4CCC(=O)NC4=O)cc3F)CC2)CC1 (stereo not shown) [Compound 216]
< 0.1	COc1cc(-c2cn(C)c(=O)c3[nH]ncc23)cc(OC)c1CN1CCN(C(=O)CN2CCC(c3ccc(OC4CCC(=O)NC4=O)cc3)CC2)CC1 (stereo not shown) [Compound 21]
< 0.1	COc1cc(-c2cn(C)c(=O)c(C)c2C)cc(Cl)c1CN1CCC(C2CCN(c3ccc(NC4CCC(=O)NC4=O)cc3C(F)(F)F)CC2)CC1 (stereo not shown) [Compound 85]
< 0.1	COc1cc(-c2cn(C)c(=O)c3[nH]ncc23)cc(OC)c1CC1CCN(C(=O)CC2CCN(c3ccc(NC4CCC(=O)NC4=O)cc3C(F)(F)F)CC2)CC1 (stereo not shown) [Compound 160]
< 0.1	COc1cc(-c2cn(C)c(=O)c3[nH]ncc23)cc(F)c1CN1CCN(C(=O)CC2CCN(c3ccc(NC4CCC(=O)NC4=O)cc3)CC2)CC1 (stereo not shown) [Compound 49, 3-[4-[4-[2-[4-[[2-fluoro-6-methoxy-4-(6-methyl-7-oxo-1H-pyrazolo[3,4-c]pyridin-4-yl)phenyl]methyl]piperazin-1-yl]-2-oxo-ethyl]-1-piperidyl]anilino]piperidine-2,6-dione]
< 0.1	COc1cc(-c2cn(C)c(=O)c3cnccc23)cc(Cl)c1C(=O)N1CCC(N2CCN(c3ccc(NC4CCC(=O)NC4=O)cc3F)CC2)C(F)(F)C1 (stereo not shown) [Compound 224]
< 0.1	COc1cc(-c2cn(C)c(=O)c3cnccc23)cc(OC)c1C(=O)N1Cc2cccc(CC3CCN(c4ccc(NC5CCC(=O)NC5=O)cc4F)CC3)c2C(F)(F)C1 (stereo not shown) [Compound 234]
< 0.1	COc1cc(-c2cn(C)c(=O)c(C)c2C)cc(OC)c1CN1CCC(C2CCN(c3ccc(NC4CCC(=O)NC4=O)cc3F)CC2)C(F)(F)C1 (stereo not shown) [Compound 198]
< 0.1	COc1cc(-c2cn(C)c(=O)c3[nH]ncc23)cc(OC)c1CN1CCN(C(=O)CN2CCN(c3ccc(NC4CCC(=O)NC4=O)cc3F)CC2)C(C)(C)C1 (stereo not shown) [Compound 111, 3-[4-[4-[2-[4-[[2,6-dimethoxy-4-(6-methyl-7-oxo-1H-pyrazolo[3,4-c]pyridin-4-yl)phenyl]methyl]-2,2-dimethyl-piperazin-1-yl]-2-oxo-ethyl]piperazin-1-yl]-3-fluoro-anilino]piperidine-2,6-dione]
< 0.1	COc1cc(-c2cn(C)c(=O)c3cnccc23)cc(Cl)c1CN1CCC(C2CCN(c3ccc(NC4CCC(=O)NC4=O)cc3Cl)CC2)CC1 (stereo not shown) [Compound 77]
< 0.1	COc1cc(-c2cn(C)c(=O)c3[nH]ncc23)cc(Cl)c1CN1CCN(C(=O)CN2CCC(c3ccc(NC4CCC(=O)NC4=O)cc3)C(F)(F)C2)CC1 (stereo not shown) [Compound 34]
< 0.1	COc1cc(-c2cn(C)c(=O)c3cnccc23)cc(F)c1CN1CCC(N(C)C(=O)N2CCC(c3ccc(NC4CCC(=O)NC4=O)cc3)CC2)C(F)(F)C1 (stereo not shown) [Compound 124]
< 0.1	COc1cc(-c2cn(C)c(=O)c(C)c2C)cnc1CN1CCC(C2CCN(c3ccc(NC4CCC(=O)NC4=O)cc3F)CC2)CC1 (stereo not shown) [Compound 82]
< 0.1	COc1cc(-c2cn(C)c(=O)c3cnccc23)cc(OC)c1CN1CCN(C(=O)CC2CCN(c3ccc(NC4CCC(=O)NC4=O)cc3C(F)(F)F)CC2)CC1 (stereo not shown) [Compound 54]
< 0.1	COc1cc(-c2cn(C)c(=O)c3[nH]ncc23)cc(Cl)c1CN1CCC(C2CCN(c3ccc(NC4CCC(=O)NC4=O)cc3Cl)CC2)CC1 (stereo not shown) [Compound 75]

The remaining lines, values behind:

Compound	DC50 [µM]
COc1cc(-c2cn(C)c(=O)c3ccccc23)cc(Cl)c1CN1CCC(N(C)C(=O)N2CCC(c3ccc(NC4CCC(=O)NC4=O)cc3)CC2)CC1 (stereo not shown) [Compound 121]	< 0.1
COc1cc(-c2cn(C)c(=O)c(C)c2C)cc(Cl)c1CN1CCC(C2CCN(c3ccc(NC4CCC(=O)NC4=O)cc3F)CC2)CC1 (stereo not shown) [Compound 74]	< 0.1
COc1cc(-c2cn(C)c(=O)c3[nH]ncc23)cc(OC)c1CN1CCN(C(=O)CN2CCC(c3ccc(NC4CCC(=O)NC4=O)cc3)CC2)CC1 (single isomer, unassigned) [Compound 2]	< 0.1
COc1cc(-c2cn(C)c(=O)c3cnccc23)cc(Cl)c1CN1CCC(N(C)C(=O)N2CCC(c3ccc(NC4CCC(=O)NC4=O)cc3)CC2)C(F)(F)C1 (stereo not shown) [Compound 125]	< 0.1
COc1cc(-c2cn(C)c(=O)c3[nH]ncc23)cc(F)c1CN1CCN(C(=O)OC2CCN(c3ccc(NC4CCC(=O)NC4=O)cc3)CC2)CC1 (stereo not shown) [Compound 146, [1-[4-[(2,6-dioxo-3-piperidyl)amino]phenyl]-4-piperidyl] 4-[[2-fluoro-6-methoxy-4-(6-methyl-7-oxo-1H-pyrazolo[3,4-c]pyridin-4-yl)phenyl]methyl]piperazine-1-carboxylate]	< 0.1
COc1cc(-c2cn(C)c(=O)c3[nH]ncc23)cc(OC)c1CN1C[C@H]2C[C@@H]1CN2C(=O)CN1CCC(c2ccc(NC3CCC(=O)NC3=O)cc2)CC1 (stereo partly shown) [Compound 14]	< 0.1
COc1cc(-c2cn(C)c(=O)c3[nH]ncc23)cc(OC)c1CN1CCN(C(=O)CC2CCN(c3ccc(NC4CCC(=O)NC4=O)cc3C(F)(F)F)CC2)CC1 (stereo not shown) [Compound 52, 3-[4-[4-[2-[4-[[2,6-dimethoxy-4-(6-methyl-7-oxo-1H-pyrazolo[3,4-c]pyridin-4-yl)phenyl]methyl]piperazin-1-yl]-2-oxo-ethyl]-1-piperidyl]-3-(trifluoromethyl)anilino]piperidine-2,6-dione]	< 0.1
COc1cc(-c2cn(C)c(=O)c3cnccc23)cc(F)c1CC1CCN(C(=O)CC2CCN(c3ccc(NC4CCC(=O)NC4=O)cc3F)CC2)CC1 (stereo not shown) [Compound 158, 3-[3-fluoro-4-[4-[2-[4-[[2-fluoro-6-methoxy-4-(2-methyl-1-oxo-2,7-naphthyridin-4-yl)phenyl]methyl]-1-piperidyl]-2-oxo-ethyl]-1-piperidyl]anilino]piperidine-2,6-dione]	< 0.1
COc1cc(-c2cn(C)c(=O)c3cnccc23)cc(Cl)c1CN1CCC(C2CCN(c3ccc(NC4CCC(=O)NC4=O)cc3)CC2)CC1 (stereo not shown) [Compound 72]	< 0.1
COc1cc(-c2cn(C)c(=O)c3cc(Cl)ccc23)cc(OC)c1CN1CCN(C(=O)CN2CCC(c3ccc(NC4CCC(=O)NC4=O)cc3)CC2)CC1 (stereo not shown) [Compound 29]	< 0.1
COc1cc(-c2cn(C)c(=O)c(C)c2C)cc(Cl)c1C(=O)N1CCC(N(C)C(=O)N2CCC(c3ccc(NC4CCC(=O)NC4=O)cc3)CC2)CC1 (stereo not shown) [Compound 133]	< 0.1

Same assay, conditions: Table 2; 293T.166 cells, 2.0 hours; class symbols; read-out: HiBiT-Degradation 293T.166 BRD9 2.0 hours (DC50)

DC50 [µM]	Compound
< 0.1	COc1cc(-c2cn(C)c(=O)c(C)c2C)cc(OC)c1CN1CCC(N2CCN(c3ccc(OC4CCC(=O)NC4=O)cc3F)CC2)C(F)(F)C1 (stereo not shown) [Compound 251, 3-[4-[4-[1-[[2,6-dimethoxy-4-(1,4,5-trimethyl-6-oxo-3-pyridyl)phenyl]methyl]-3,3-difluoro-4-piperidyl]piperazin-1-yl]-3-fluoro-phenoxy]piperidine-2,6-dione]
